Tests used:
Conditions in all cases: 72 h
[1] = system: Caco-2; experiment: cell viability relative to DMSO; higher = less toxic
[2] = system: Calu-3; experiment: as above
[3] = system: Vero E6; experiment: as above
[4] = system: Caco-2; experiment: drug sensitivity score (DSS) for viability; higher = more toxic; extreme values may be limits of the assay
[5] = system: Calu-3; experiment: as above
[6] = system: Vero E6; experiment: as above
[7] = system: Caco-2; experiment: relative viability EC50 (midpoint between 100% and the lowest measured viability); higher = less toxic
[8] = system: Calu-3; experiment: as above
[9] = system: Vero E6; experiment: as above
[10] = system: U2OS; experiment: cell viability relative to DMSO; higher = less toxic
[11] = system: HepG2; experiment: as above
[12] = system: U2OS; experiment: drug sensitivity score (DSS) for viability; higher = more toxic; extreme values may be limits of the assay
[13] = system: HepG2; experiment: as above
[14] = system: U2OS; experiment: relative viability EC50 (midpoint between 100% and the lowest measured viability); higher = less toxic
[15] = system: HepG2; experiment: as above

| Compound | cell viability ([1]; 1 nM) [%] | cell viability ([1]; 10 nM) [%] | cell viability ([1]; 100 nM) [%] | cell viability ([1]; 1000 nM) [%] | cell viability ([1]; 10000 nM) [%] | cell viability ([2]; 1 nM) [%] | cell viability ([2]; 10 nM) [%] | cell viability ([2]; 100 nM) [%] | cell viability ([2]; 1000 nM) [%] | cell viability ([2]; 10000 nM) [%] | cell viability ([3]; 1 nM) [%] | cell viability ([3]; 10 nM) [%] | cell viability ([3]; 100 nM) [%] | cell viability ([3]; 1000 nM) [%] | cell viability ([3]; 10000 nM) [%] | drug sensitivity score [4] | drug sensitivity score [5] | drug sensitivity score [6] | relative viability EC50 [7] [µM] | relative viability EC50 [8] [µM] | relative viability EC50 [9] [µM] | cell viability ([10]; 1 nM) [%] | cell viability ([10]; 10 nM) [%] | cell viability ([10]; 100 nM) [%] | cell viability ([10]; 1000 nM) [%] | cell viability ([10]; 10000 nM) [%] | cell viability ([11]; 1 nM) [%] | cell viability ([11]; 10 nM) [%] | cell viability ([11]; 100 nM) [%] | cell viability ([11]; 1000 nM) [%] | cell viability ([11]; 10000 nM) [%] | drug sensitivity score [12] | drug sensitivity score [13] | relative viability EC50 [14] [µM] | relative viability EC50 [15] [µM] |
| --- | --- | --- | --- | --- | --- | --- | --- | --- | --- | --- | --- | --- | --- | --- | --- | --- | --- | --- | --- | --- | --- | --- | --- | --- | --- | --- | --- | --- | --- | --- | --- | --- | --- | --- | --- |
| O=C(O)c1cc(-c2ccc(F)cc2F)ccc1O [diflunisal] | 93.3 | 105 | 93.9 | 105 | 104 | 103 | 109 | 109 | 99.6 | 95.7 | 103 | 100 | 92.9 | 98.4 | 97.1 | 0 | 0 | 0 | > 10 | > 10 | > 10 | – | – | – | – | – | – | – | – | – | – | – | – | – | – |
| CCOP(=S)(OCC)Oc1cc(C)nc(C(C)C)n1 [dimpylate] | 102 | 95.4 | 103 | 93 | 93.2 | 106 | 100 | 99.3 | 97.7 | 96.3 | – | – | – | – | – | 0 | 0 | – | > 10 | > 10 | – | 104 | 102 | 102 | 97.9 | 99.2 | 92.9 | 104 | 106 | 101 | 96.8 | 0 | 0 | > 10 | > 10 |
| Oc1ccc(C2CNCCc3c2cc(O)c(O)c3Cl)cc1 (stereo not given) [fenoldopam] | 96 | 87 | 80.6 | 76.6 | 73.7 | 96.5 | 110 | 105 | 109 | 107 | 101 | 99.4 | 97.3 | 103 | 96.7 | 6.6 | 0 | 0 | – | > 10 | > 10 | 103 | 101 | 99.1 | 102 | 103 | 104 | 102 | 95.3 | 105 | 94.8 | 0 | 0 | > 10 | > 10 |
| O=C1O[C@H](CO)[C@@H](O)[C@H](O)[C@H]1O [gluconolactone] | 109 | 106 | 102 | 95.1 | 101 | 99.6 | 90.5 | 100 | 97.2 | 105 | – | – | – | – | – | 0 | 0 | – | > 10 | > 10 | – | 106 | 102 | 104 | 98.9 | 106 | 90.9 | 103 | 92.2 | 91.2 | 94.5 | 0 | 0 | > 10 | > 10 |
| O=C(NCNC(=O)NC1C(=O)NC(=O)N1CO)NC1C(=O)NC(=O)N1CO (stereo not given) [imidurea] | 90.7 | 95.4 | 98.7 | 98 | 103 | 94.4 | 98.1 | 104 | 103 | 95.6 | – | – | – | – | – | 0 | 0 | – | > 10 | > 10 | – | 103 | 97.3 | 102 | 98.3 | 102 | 104 | 97.3 | 89.8 | 98.1 | 82.9 | 0 | 0.3 | > 10 | > 10 |
| O=C(Nc1ccncc1)C(=O)c1cn(Cc2ccc(Cl)cc2)c2ccccc12 [indibulin] | 75 | 84 | 94.9 | 82.9 | 92.2 | 97.9 | 95 | 110 | 102 | 104 | 75.1 | 104 | 79.4 | 97.3 | 66.1 | 0 | 0 | 2 | > 10 | > 10 | – | 111 | 99 | 97.2 | 95.4 | 90.9 | 91.6 | 107 | 94.9 | 91.3 | 94.5 | 0 | 0 | > 10 | > 10 |
| CCCCC(F)(F)[C@@]1(O)CC[C@H]2[C@@H](CC(=O)[C@@H]2CCCCCCC(=O)O)O1 [lubiprostone] | 108 | 101 | 101 | 103 | 97.8 | 106 | 102 | 111 | 98.6 | 98.8 | – | – | – | – | – | 0 | 0 | – | > 10 | > 10 | – | 104 | 102 | 104 | 99.8 | 104 | – | – | – | – | – | 0 | – | > 10 | – |
| COC(=O)C1=C(C)NC(C)=C(C(=O)OCCN2CCN(C(c3ccccc3)c3ccccc3)CC2)C1c1cccc([N+](=O)[O-])c1 (stereo not given) [manidipine] | 98.4 | 93.9 | 104 | 94.5 | 65.4 | 94.6 | 103 | 104 | 91.5 | 85.4 | 100 | 103 | 96.7 | 100 | 93.3 | 2.5 | 0.8 | 0 | – | > 10 | > 10 | 98.3 | 100 | 93.8 | 97.6 | 71.9 | 105 | 104 | 104 | 104 | 81.4 | 1.5 | 0.3 | – | > 10 |
| CC(=O)Oc1c(C)cc(OCC(O)CNC(C)C)c(C)c1C (stereo not given) [metipranolol] | 73.8 | 84.6 | 102 | 98.7 | 70.3 | 94.6 | 89.8 | 97.7 | 96.1 | 92.9 | 103 | 107 | 94.6 | 85.8 | 97.5 | 1.3 | 0 | 1.6 | – | > 10 | > 10 | 99.1 | 97.3 | 96.2 | 93.9 | 93.8 | 101 | 102 | 105 | 84 | 93.3 | 0 | 1.5 | > 10 | > 10 |
| NCc1c[nH]c(=S)n1[C@H]1CCc2c(F)cc(F)cc2C1 [nepicastat] | – | – | – | – | – | 87.7 | 95.3 | 98.6 | 103 | 97.6 | 105 | 104 | 106 | 96.7 | 108 | – | 0 | 0 | – | > 10 | > 10 | 101 | 105 | 99 | 106 | 97.2 | 100 | 95.2 | 93.8 | 102 | 96.2 | 0 | 0 | > 10 | > 10 |
| C[C@@]12C[C@@]3(O)O[C@@H](O1)[C@]1(COC(=O)c4ccccc4)[C@H]3C[C@@]12O[C@@H]1O[C@H](CO)[C@@H](O)[C@H](O)[C@H]1O [paeoniflorin] | 103 | 101 | 96 | 93.5 | 96 | 91 | 98.6 | 107 | 87 | 98.7 | – | – | – | – | – | 0 | 0 | – | > 10 | > 10 | – | 101 | 99.8 | 104 | 102 | 101 | 100 | 100 | 102 | 107 | 95.9 | 0 | 0 | > 10 | > 10 |
| CCCCCCCCCCCCCCCC(=O)OC(CC(=O)[O-])C[N+](C)(C)C (stereo not given) [palmitoylcarnitine] | 110 | 102 | 102 | 92.5 | 93 | 98.3 | 94.3 | 100 | 97 | 84.2 | 96.2 | 104 | 104 | 99.6 | 73 | 0 | 0.6 | 1.1 | > 10 | > 10 | – | 103 | 104 | 99.9 | 100 | 102 | 99.3 | 96.8 | 107 | 95.8 | 94.9 | 0 | 0 | > 10 | > 10 |
| CCCOC(=O)c1ccccc1 [propyl-benzoate] | – | – | – | – | – | 98.5 | 90.6 | 98.2 | 99.1 | 102 | 94.3 | 94.6 | 91.8 | 90.3 | 101 | – | 0 | 0 | – | > 10 | > 10 | – | – | – | – | – | 98.7 | 98.2 | 94.7 | 93 | 94.4 | – | 0 | – | > 10 |
| Cc1cc(/C=C/C#N)cc(C)c1Nc1ccnc(Nc2ccc(C#N)cc2)n1 [rilpivirine] | 97.8 | 98 | 93.3 | 87.3 | 61.4 | 97 | 93.7 | 99.8 | 95.6 | 92.7 | 100 | 100 | 96.8 | 98.5 | 70.5 | 3.1 | 0 | 1.5 | – | > 10 | – | 94.8 | 99.1 | 99.6 | 95.4 | 80.5 | 98.9 | 99.8 | 99.5 | 96.9 | 47.7 | 1.1 | 3.2 | > 10 | 2.69 |
| COc1ccc2c(O[C@@H]3C[C@H]4C(=O)N[C@]5(C(=O)NS(=O)(=O)C6CC6)C[C@H]5/C=C\CCCCN(C)C(=O)[C@@H]4C3)cc(-c3nc(C(C)C)cs3)nc2c1C [simeprevir] | 94.8 | 100 | 112 | 102 | 70.8 | 94.9 | 99.7 | 88.7 | 100 | 102 | 102 | 105 | 95.4 | 101 | 102 | 1.1 | 0 | 0 | – | > 10 | > 10 | 104 | 98.8 | 99.9 | 99.4 | 105 | 102 | 99.4 | 92.7 | 101 | 81.5 | 0 | 0.4 | > 10 | > 10 |
| COc1cc2c(N3CCN(C(=O)Nc4ccc(OC(C)C)cc4)CC3)ncnc2cc1OCCCN1CCCCC1 [tandutinib] | 113 | 102 | 112 | 105 | 98.2 | 109 | 97 | 94.7 | 108 | 111 | – | – | – | – | – | 0 | 0 | – | > 10 | > 10 | – | – | – | – | – | – | 110 | 112 | 112 | 109 | 84.1 | – | 0.1 | – | > 10 |

Source: the supplement of paper PMC13380429
